± gives the expanded uncertainty stated by the source.
Assay: molar enthalpy of vaporization or sublimation
Conditions: 298.15 K; Liquid; Static calorimetry

molar enthalpy: 14.1 ± 0.287 kcal/mol
SMILES: COC(=O)c1cccn1C [methyl 1-methyl-2-pyrrolecarboxylate]

Source: the NIST ThermoML archive (doi:10.1016/j.jct.2013.08.004)
